Read-outs that look alike come from different tables or passages of the source.
Legend:
[1] = Effects on body weight and lean body mass, 4-week administration; assay type: in vivo, cynomolgus monkey
Experimental: The monkeys were divided into five groups by weight randomization (MiTOX system ver2.0, Mitsui E & S Systems Research Inc) on the last day of the habituation period. SARM‐2f was orally administered at daily doses of 1, 3, or 10 mg/kg for 4 weeks between 9:00 and 11:00 hours, using 0.5% w/v methylcellulose as the vehicle. TE was injected intramuscularly on Day 0 and Day 13; the dosing start was set at Day 0 at a dose of 2 mg/kg using sesame oil as the vehicle. The route of administration and dose of TE was selected according to the route and dose mentioned in the clinical indications. BW was measured every week before dosing (between 8:30 and 9:00 hours), and LBM was measured every 2 weeks after dosing and before feeding (between 11:30 and 14:30 hours) using an X‐ray bone density measuring device (Discovery, HOLOGIC USA). Blood collection for lipid profiles was conducted on the day after the completion of the four‐week multiple administration of SARM‐2f or TE. Plasma levels of total cholesterol (T‐chol), HDL‐c, low‐density lipoprotein cholesterol (LDL‐c), triglyceride (TG), alanine aminotransferase (ALT), and […] (AST) were measured by an automatic JCA‐BM8 analysis system (JEOL Ltd.). Plasma lipoprotein (a) (Lp (a)) levels were measured using a multiplate absorbance measuring system (Multiscan Ascent, Thermo Fisher Scientific KK).
(§1) In the reporter assays, EC50 was calculated using Graph Pad Prism version 6. The effects of SARM‐2f or TE on BW and LBM were analyzed by t test, with Bonferroni correction for repeated measurements.

[2] = parameters: method as in PMID 28454849; settings: rats, cited from earlier work
cynomolgus monkey AR = biological target: T1, cynomolgus monkey AR (Macaca fascicularis, UniProt O97952); assay: AR reporter assay (MMTV-luc) in COS7 cells expressing monkey AR; assay type: cell-based
T1 construct: expressed in transfected cells; host or cells: COS7
T1 sequence (O97952 1-895): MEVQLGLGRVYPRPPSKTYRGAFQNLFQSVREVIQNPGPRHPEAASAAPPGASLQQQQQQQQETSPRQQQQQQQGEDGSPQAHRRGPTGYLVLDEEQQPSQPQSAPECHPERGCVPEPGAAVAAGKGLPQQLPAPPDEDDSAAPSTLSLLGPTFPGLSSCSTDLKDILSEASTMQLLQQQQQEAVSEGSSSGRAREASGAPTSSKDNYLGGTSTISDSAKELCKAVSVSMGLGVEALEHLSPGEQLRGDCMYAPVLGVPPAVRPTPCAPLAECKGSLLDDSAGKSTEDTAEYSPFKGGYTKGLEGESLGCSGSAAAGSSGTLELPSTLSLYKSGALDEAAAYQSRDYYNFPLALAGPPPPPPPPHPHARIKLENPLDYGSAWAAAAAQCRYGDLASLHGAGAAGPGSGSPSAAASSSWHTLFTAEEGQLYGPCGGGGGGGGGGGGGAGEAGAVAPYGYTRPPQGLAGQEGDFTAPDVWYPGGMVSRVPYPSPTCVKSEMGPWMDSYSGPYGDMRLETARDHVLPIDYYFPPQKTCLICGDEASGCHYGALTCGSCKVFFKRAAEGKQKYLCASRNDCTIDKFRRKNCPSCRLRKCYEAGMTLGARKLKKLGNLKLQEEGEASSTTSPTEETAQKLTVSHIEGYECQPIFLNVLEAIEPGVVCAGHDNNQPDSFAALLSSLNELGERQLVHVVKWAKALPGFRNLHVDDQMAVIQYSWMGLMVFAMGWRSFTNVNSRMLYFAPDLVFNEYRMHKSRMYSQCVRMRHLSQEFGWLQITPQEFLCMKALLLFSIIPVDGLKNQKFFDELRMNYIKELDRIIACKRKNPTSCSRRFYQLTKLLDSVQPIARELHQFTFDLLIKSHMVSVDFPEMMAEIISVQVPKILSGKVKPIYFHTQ
Experimental: Two hours post‐transfection, the cells were plated in 96‐well plates at a density of 2 × 10^4 cells/well, and cultured at 37°C for 3 hours. […] Luciferase activity was measured using the Steady‐Glo Luciferase assay system (Promega) and an Envision Multimode Plate Reader (PerkinElmer).
as §1

[3] = Pharmacokinetic study, oral single and 14-day dosing; assay type: in vivo, cynomolgus monkey
Experimental: Monkeys were orally treated with SARM‐2f (10 mg/kg) as a single dose or daily administration for 14 consecutive days; blood was collected from the femoral vein at 0.5, 1, 2, 4, 8, and 24 hours after the single dose and 14 doses (n = 2 each sex). The blood samples were centrifuged (4°C, 12 000 g, 1 minutes) to obtain plasma. Plasma concentrations of SARM‐2f were measured by liquid chromatography/tandem mass spectrometry.

[4] = parameters: method as in PMID 29344250; settings: rats; cited from earlier work
[5] = 10 mg/kg p.o., 1st (single) dose, total N = 4
[6] = 10 mg/kg p.o., 1st dose, female N = 2
[7] = 10 mg/kg p.o., 1st dose, male N = 2
[8] = 10 mg/kg/day p.o., 14th dose, female N = 2
[9] = 10 mg/kg/day p.o., 14th dose, male N = 2
[10] = 10 mg/kg/day p.o., 14th dose, total N = 4

CC[C@H]1[C@@H](O)CC(=O)N1c1ccc(C#N)c(C(F)(F)F)c1 [SARM‐2f, 4′‐[(2S,3S)‐2‐Ethyl‐3‐hydroxy‐5‐oxopyrrolidin‐1‐yl]‐2′‐(trifluoromethyl) benzonitrile]
BW increase from pre‐dosing level ([1]; 1 mg/kg daily p.o., Day 13, male monkeys n = 3): 6.2% | LBM increase from pre‐dosing level ([1]; 1 mg/kg daily p.o., Day 13, n = 3): 4.3% | BW increase from pre‐dosing level ([1]; 1 mg/kg daily p.o., Day 27, male monkeys n = 3): 7.7% | LBM increase from pre‐dosing level ([1]; 1 mg/kg daily p.o., Day 28, n = 3): 6.1% | BW increase from pre‐dosing level ([1]; 3 mg/kg daily p.o., Day 13, male monkeys n = 3): 6.0% | LBM increase from pre‐dosing level ([1]; 3 mg/kg daily p.o., Day 13, n = 3): 4.0% | BW increase from pre‐dosing level ([1]; 3 mg/kg daily p.o., Day 27, male monkeys n = 3): 3.3% | LBM increase from pre‐dosing level ([1]; 3 mg/kg daily p.o., Day 28, n = 3): 3.1% | effective dose to increase BW by approximately 10% ([1]; monkeys, daily p.o., 4 weeks): 10 mg/kg | Vdss ([2]; intravenous administration at 0.1 mg/kg): 2.167 L/kg | AUC 0‐24 h ([2]; single oral administration at 1 mg/kg): 809.4 ng·h/mL | MRT (Mean Residence Time) [2]: 3.06 h | EC50 (cynomolgus monkey AR; monkey AR reporter assay (abstract), read-out: EC50): 3 nM | maximal AR activation (cynomolgus monkey AR; monkey AR, at 1 μmol/L, 1 μmol/L DHT = 100%): 125% | AUC 0‐24 h [3, 5]: 8152 ± 945 ng·h/mL | C max [3, 5]: 3011 ± 718 ng/mL | T max [3, 5]: 1.0 ± 0.0 h | AUC 0‐24 h [3, 6]: 8116 ng·h/mL | C max [3, 6]: 3341 ng/mL | T max [3, 6]: 1.0 h | AUC 0‐24 h [3, 7]: 8188 ng·h/mL | C max [3, 7]: 2681 ng/mL | T max [3, 7]: 1.0 h | AUC 0‐24 h [3, 8]: 6043 ng·h/mL | C max [3, 8]: 2297 ng/mL | T max [3, 8]: 1 h | AUC 0‐24 h [3, 9]: 8620 ng·h/mL | C max [3, 9]: 3176 ng/mL | T max [3, 9]: 0.8 h | AUC 0‐24 h [3, 10]: 7331 ± 1618 ng·h/mL | C max [3, 10]: 2736 ± 525 ng/mL | T max [3, 10]: 0.9 ± 0.3 h | dose sufficient to increase BW [4]: 0.3 mg/kg

Reference: article PMC7005530, “A selective androgen receptor modulator SARM‐2f activates androgen receptor, increases lean body mass, and suppresses blood lipid levels in cynomolgus monkeys” (Pharmacology Research & Perspectives, 2020)
